# Values quoted from earlier work as cited in patent US20090209641A1, “PHARMACEUTICAL COMPOSITION FOR ADMINISTRATION BY INJECTION” (priority 2006, published 2009).
structure (smiles),measurement,value
N.N.O=C([O-])C1(C(=O)[O-])CCC1.[Pt+2] [carboplatinum],solubility in water,17 mg/mL
